BindingDB's records for PubMed 1362243 (National Institute of Mental Health, 1992)
Positions of bridges follow the written chain, without caps; N, C: chain ends. Non-standard residues stand in square brackets, D forms with d. Residues, ends and D or L forms follow the SMILES beside them. *: point of attachment. X1 = CC(O)[C@H](CO)N*

Target: Somatostatin receptor type 4 (Rattus norvegicus, UniProt P30937)
Sequence (P30937 whole entry): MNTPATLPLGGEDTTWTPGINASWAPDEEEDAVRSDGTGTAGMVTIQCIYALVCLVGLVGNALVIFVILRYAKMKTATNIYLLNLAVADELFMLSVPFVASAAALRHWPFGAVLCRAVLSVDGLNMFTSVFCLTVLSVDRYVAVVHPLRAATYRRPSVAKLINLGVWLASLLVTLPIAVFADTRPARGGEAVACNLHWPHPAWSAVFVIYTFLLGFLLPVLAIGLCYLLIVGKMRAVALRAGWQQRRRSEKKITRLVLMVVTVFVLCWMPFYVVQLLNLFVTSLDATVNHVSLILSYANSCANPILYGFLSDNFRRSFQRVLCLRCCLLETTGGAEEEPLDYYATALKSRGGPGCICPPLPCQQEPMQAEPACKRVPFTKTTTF

Row | SMILES | Ki [nM]
1 | CSCC[C@H](NC(=O)[C@H](C)NC(=O)[C@@H]1CCCN1C(=O)[C@H](CC(N)=O)NC(=O)[C@H](CO)NC(=O)[C@H](CC(N)=O)NC(=O)[C@H](C)NC(=O)[C@@H](N)CO)C(=O)N[C@@H](C)C(=O)N1CCC[C@H]1C(=O)N[C@@H](CCCNC(=N)N)C(=O)N[C@@H](CCC(=O)O)C(=O)N[C@@H](CCCNC(=N)N)C(=O)N[C@@H](CCCCN)C(=O)N[C@@H](C)C(=O)NCC(=O)N[C@H]1CSSC[C@@H](C(=O)O)NC(=O)[C@H](CO)NC(=O)[C@H]([C@@H](C)O)NC(=O)[C@H](Cc2ccccc2)NC(=O)[C@H]([C@@H](C)O)NC(=O)[C@H](CCCCN)NC(=O)[C@H](Cc2c[nH]c3ccccc23)NC(=O)[C@H](Cc2ccccc2)NC(=O)[C@H](Cc2ccccc2)NC(=O)[C@H](CC(N)=O)NC(=O)[C@H](CCCCN)NC1=O [somatostatin-28] | 0.08
2 | CC(O)[C@H](CO)NC(=O)[C@@H]1CSSC[C@H](NC(=O)[C@H](N)Cc2ccccc2)C(=O)N[C@@H](Cc2ccccc2)C(=O)N[C@H](Cc2c[nH]c3ccccc23)C(=O)N[C@@H](CCCCN)C(=O)N[C@@H]([C@@H](C)O)C(=O)N1 (some centres not stated) (H-[dF]CF[dW]KTC-X1; disulfide 2-7) | 0.18
